In patent publication US20250318524A1, “ANTIMICROBIAL COATING COMPOSITION AND METHOD OF USE THEREOF” (priority 2024, published 2025):

Experiment: Selection of antimicrobial agents: solubility in aqueous solution, stability, compatibility with the coating composition
Details: 20 wt. % in aqueous solution, during storage

N=C(NCCCCCCNC(=N)NC(=N)Nc1ccc(Cl)cc1)NC(=N)Nc1ccc(Cl)cc1.O=C(O)[C@H](O)[C@@H](O)[C@H](O)[C@H](O)CO.O=C(O)[C@H](O)[C@@H](O)[C@H](O)[C@H](O)CO [Chlorhexidine gluconate, chlorhexidine gluconate]
colour of solution over time: turned dark brown
